Laboratory results taken from patent US20130005678A1, “Methods and Compositions for Treating or Ameliorating Cancer Using Gemcitabine-5'-Elaidate” (CLAVIS PHARMA ASA, priority 2010, published 2013).

Experiments:
[1] = tested on: Co-26 murine colon cancer cells; assay: Antitumor effect in Co-26 liver metastasis model; assay type: in vivo; settings: single dose 75 mg/kg
Protocol: Antitumor effect of single dose of gemcitabine-5′-elaidic acid ester or gemcitabine is tested in Balb/C female mice injected with Co-26 murine colon cancer cells in the spleen (a liver metastasis model). […] The activity of gemcitabine is similar.

WiDr cell line = assay: Cell cycle analysis, flow cytometry with propidium iodide (WiDr); assay type: cell-based, human
Protocol: The effect on cell cycle is determined after 72 h exposure using flow cytometry combined with propidium iodide staining For cell cycle analysis, the concentration range is from 0.0005 μM to 0.05 μM in the A549 cell line and from 0.001 μM to 0.1 μM in the WiDr cell line. […] The effect on cell cycle is obtained also for the combinations with pemetrexed.

A549 = assay: Platinum accumulation in DNA (A549); assay type: cell-based, human; settings: oxaliplatin 200 μM combined with Gemcitabine-5′-elaidate 0.004 μM
Protocol: The effect on DNA platinum accumulation in DNA after exposure to oxaliplatin and oxaliplatin combined with Gemcitabine-5′-elaidate (oxaliplatin [200 μM] combined with Gemcitabine-5′-elaidate [0.004 μM]) is also determined.

A549 human NSCLC = assay: Combination study in vitro, growth inhibition, median effect analysis (A549); assay type: cell-based
Protocol: The cell lines A549 human NSCLC and WiDr human colon carcinoma are used to determine the combination index and also the effect of Gemcitabine-5′-elaidate on the cell cycle. A sulforhodamine B colorimetric assay is used to determine growth inhibition after 72 hours. Pemetrexed combinations are tested using the MTT assay. Combinations with pemetrexed are also tested in the WiDr-LF cell line, which are WiDr cells cultured under low folate conditions. The IC25 and IC50 values (inhibitory concentrations at 25% or 50%, respectively) are calculated. The IC25 value is used for combinations with serial dilutions of oxaliplatin or docetaxel, and the IC50 value is used for pemetrexed combinations. Median effect analysis is performed.

pancreatic cancer = assay: Treatment of a pancreatic cancer patient with low hENT1 expression; assay type: in vivo, human
Protocol: An individual is diagnosed with pancreatic cancer. The patient provides a sample. The sample contains cancerous cells from the patient. The sample comes from a biopsy of the tumor, from circulating tumor cells, or from another source.
The sample is tested to determine the level of expression of hENT1 or another nucleoside transporter. The level is detected by immunohistochemistry, by determining the amount of mRNA relevant to hENT1 in the sample, or by other known means.
The testing of the sample takes place at a testing facility. The physician or their staff ships the sample to this facility. The sample is fixed or frozen for shipment. The sample is mixed with an antibody prior to shipment and analyzed when it arrives at the facility or the sample is shipped with no antibody added prior to shipment.
The nucleoside transporter level is compared to a control. The control is non-cancerous cells from the patient or is samples from another population. The control samples are analyzed at the same time as the sample or the analysis is based upon computer stored data where the comparison is done by using a rule based upon previously collected and characterized control data. This comparison allows for the classification of the sample as a “high,” “low,” or “normal,” sample based upon nucleoside transporter levels. […]

human glioma cells U373 [2] = assay: Antitumor activity in human glioma U373 grown intracerebrally; assay type: in vivo
Protocol: NMRI male mice are inoculated with human glioma cells U373 intracerebrally. The tumors at the injection site (at the surface of the brain), as well as the intracerebral tumors, are evaluated. Gemcitabine-5′-elaidic acid ester is administered intraperitoneally on Days 4-8, 11-15, 18-22, and 25-29 and is active at 4 mg/kg per injection.

[3] = tested on: human colon cancer Co5776; assay: Antitumor activity in human colon xenograft Co5776; assay type: in vivo
Protocol: Fragments of human colon cancers Co5776 and Co6044 are implanted subcutaneously in NCR female mice (7-8 mice/group). Gemcitabine (120 mg/kg) and gemcitabine-5′-elaidic acid ester (40 mg/kg) are administered intraperitoneally, every third day for five times.
NCr female mice implanted subcutaneously with human colon carcinoma fragments, Co5776, are treated intraperitoneally. Two different schedules of gemcitabine-5′-elaidic acid ester are administered, once weekly times 2 (Days 11 and 18), and every third day times 5 (Days 11, 14, 17, 20, and 23). Antitumor activity of gemcitabine-5′-elaidic acid ester is similar for 150 mg/kg once weekly, administered twice or 40 mg/kg every third day administered five times.

CEM and CEM-Ara-C/8 = assay: Tumor cell killing in vitro in CEM and hENT1-deficient CEM-Ara-C/8 (FIGS. 5A-5B); assay type: cell-based; settings: CEM vs hENT1-deficient CEM-Ara-C/8
Excerpt: CEM: T-lymphoblastic leukemia cell line. CEM-Ara-C/8: Clonal derivative of CEM with hENT1 transporter deficiency.

human glioma cells U373 [4] = assay: Antitumor activity in human glioma xenograft model U373 (subcutaneous); assay type: in vivo; settings: NCR mice, intraperitoneal
Excerpt: NCR mice are inoculated subcutaneously on Day 0 with human glioma cells U373. Treatment (intraperitoneal) starts on Day 7, either every third day or weekly.

Co6044 = assay: Oral activity and schedule dependency in mice with Co6044; assay type: in vivo, human
Protocol: Oral administration of Gemcitabine-5′-elaidic acid ester and gemcitabine is tested in NCr:nu/nu mice for potential antitumor activity. Treatment is every third day repeated five times. In a follow-up experiment, the antitumor activity of oral and intraperitoneal treatment is compared in this colon cancer model (Co6044). The doses for oral treatment with Gemcitabine-5′-elaidic acid ester and gemcitabine are lower (20, 30, or 40 mg/kg) than in the previous experiment.
In this experiment, the antitumor activity of oral Gemcitabine-5′-elaidic acid ester in three different administration schedules is compared: every 3 days times 5, daily times 5, and once weekly times 2. Three doses are tested per schedule.

[5] = 72 h exposure, 0.001 μM to 0.1 μM
[6] = 72 hours, sulforhodamine B assay

Structure (SMILES): CCCCCCCC/C=C/CCCCCCCC(=O)OC[C@H]1O[C@@H](n2ccc(N)nc2=O)C(F)(F)[C@@H]1O [gemcitabine-5′-elaidic acid ester]
- antitumor activity ([1]; Balb/C female mice, Co-26 cells in the spleen): significant antitumor activity
- hematological parameters [1]: moderate reduction
- mean survival in days and Treated/Control (T/C, %) over saline control [1]: significant increase
- G2/M phase, combination with pemetrexed (WiDr cell line): only a marginal increase
- S phase accumulation (WiDr cell line; [5]): S phase accumulation at the two highest concentrations
- sub G1 accumulation (WiDr cell line; [5]): dose dependent sub G1 accumulation
- platinum adducts in DNA, oxaliplatin combined vs oxaliplatin alone (A549): but not in A549
- combination effect with docetaxel (A549 human NSCLC; [6]): antagonistic
- combination effect with oxaliplatin (A549 human NSCLC; [6]): synergistic
- combination effect with pemetrexed (A549 human NSCLC; MTT assay): Antagonistic activity
- response to treatment (pancreatic cancer): responds favorably
- antitumor activity (human glioma cells U373 [2]; NMRI male mice, U373 intracerebrally, intraperitoneally Days 4-8, 11-15, 18-22, 25-29, 4 mg/kg per injection): active
- activity intracerebrally (human glioma cells U373 [2]; after intraperitoneal administration): active intracerebrally
- activity compared with gemcitabine ([3]; 40 mg/kg vs gemcitabine 120 mg/kg, intraperitoneally every third day five times): similar
- antitumor effect ([3]; NCR female mice, intraperitoneally every third day five times, gemcitabine 120 mg/kg, gemcitabine-5′-elaidic acid ester 40 mg/kg): Significant antitumor effect
- antitumor activity, comparison of schedules ([3]; NCr female mice, intraperitoneal, 150 mg/kg once weekly times 2 vs 40 mg/kg every third day times 5): similar
- tumor cell killing in relation to hENT1 (CEM and CEM-Ara-C/8): kills tumor cells in vitro independent of hENT1
- antitumor effect compared with gemcitabine (human glioma cells U373 [4]; dosed Days 7 and 14 (weekly)): better than that of gemcitabine
- antitumor effect compared with gemcitabine (human glioma cells U373 [4]; every third day schedule from Day 7): equal to gemcitabine
- antitumor activity (Co6044; every 3 days times 5, daily times 5, once weekly times 2, all tested schedules): High antitumor activity
- dose dependence of activity (Co6044; three doses per schedule): dose dependent
